Consider 2 compounds from publication PMC12408683 (Archives of Toxicology, 2025).

The subject of series [1] is HepG2 cells. Also on record: method as in Yang et al. 2022. The following applies: MTT assay; ref Yang et al. 2022; cited from earlier work.
Series [2] concerns HepG2 cells. The experiment in a line: DNA adduct quantification by UHPLC-MS/MS in HepG2 cells. The series is classed as cell-based, human. Particulars: for E3′-N^2-dG adducts / E3′-N^6-dA adducts: 24 h. The method, then:
To this end, 6 × 10^6 cells were seeded per 10 cm dish and allowed to attach overnight. […] The pellets were washed with phosphate-buffered saline (PBS) and stored at – 20 °C until further use. DNA was isolated as described previously (Carlsson et al. [2022]) and DNA concentration as well as purity were determined with the NanoDrop ND1000 photometer (Thermo Scientific, Waltham MA, USA). As a next step, 30 µg DNA of each sample was digested overnight at 37 °C with micrococcal nuclease (Worthington, Lakewood NJ, USA) and phosphodiesterase II (Worthington, Lakewood NJ, USA) as reported (Carlsson et al. [2022]). Afterwards ^15N-E3′-N^2-dG (2 nM), ^15N-E3′-N^6-dA (0.5 nM) as well as ^15N-dG (20 µM) (Silantes, München, Germany) were added as internal standards. The isotope-labelled internal DNA adduct standards and external DNA adduct standard were synthesised as previously described (Schumacher et al. [2013]). Subsequently, the samples were incubated overnight at 37 °C with alkaline phosphatase (Sigma-Aldrich, St. Louis MO, USA), followed by precipitation of remaining proteins with ethanol and centrifugation at 20,800 g. The supernatant was narrowed down in a vacuum centrifuge (Eppendorf concentrator plus, Eppendorf, Hamburg, Germany) at 60 °C and 1400 g for 2–4 h and the resulting pellet was dissolved in 75% methanol. After another centrifugation step, the solution was transferred into glass vials with inserts.
The DNA adducts were measured via UHPLC–MS/MS with a multiple reaction method (MRM) using a UHPLC system (Agilent 1290 infinity; Agilent Technologies, Santa Clara CA, USA) consisting of a binary pump (G4220A), an autosampler (G4226A) and a column oven (G1316C). The eluent consisted of 0.1% acetic acid and UHPLC grade methanol. Injection volume was 5 μL and the flow rate was 0.2 mL/min. The gradients are shown in the supporting information, Fig. 2A, B. As a separation column, a Waters XTerraMS C18 2.5 µm (2.1 × 50 mm) was used at 35 °C. The UHPLC was coupled to the Sciex QTrap 5500 MS using a declustering potential of 91 V, an entrance potential of 10 V, a collision energy of 33 V, a collision cell entrance potential of 10 V, curtain gas of 25 psi, an ion spray voltage of 5500 V, a temperature of 550 °C, and an ion source gas of 35 psi as specific mass spectrometry parameters. Measurement was performed with an electron spray ionisation in positive mode using MRM to quantify both adducts. For further quantification of the adduct levels, a standard curve of both adducts was carried along ranging from 60 to 100,000 pM, also containing isotope-labelled standards for reference. Furthermore, the dG-content of each sample was determined via LC–MS/MS with stable isotope dilution analysis to normalise the adduct levels to the overall nucleoside content (Carlsson et al. [2022]; Stegmüller et al. [2018]). The limit of detection (LOD) and the limit of quantification (LOQ) for E3′-N^2-dG and E3′-N^6-dA are provided in supplementary Table S1. The specific compound parameters for both methods are provided in supplementary Table S2.
As benchmark response (BMR) for all concentration–response curves (adducts, micronuclei), a 2.0-fold increase vs. solvent control was used (BMC100, critical effect size = 1). The determined BMC100 and the corresponding upper and lower boundary (BMCU and BMCL, respectively) of the 90% confidence interval (CI) were used for potency comparison.

Series [3] concerns HepG2 cells. Particulars: 24 h. The method, then: (§1) γH2AX and p53 levels were assessed by SDS-PAGE and western blotting as reported (Fahrer et al. [2013]). To this end, 5 × 10^5 cells were seeded in 3.5-cm dishes to adhere overnight. […] Proteins were separated by SDS-PAGE followed by the transfer onto a nitrocellulose membrane using the wet blot method. The successful transfer was confirmed by Ponceau S staining of the membrane before blocking with 5% non-fat dry milk in Tris-buffered saline with Tween-20 (MP-TBS-T). Subsequently, the membrane was incubated with the respective primary antibodies overnight at 4 °C. The membranes were washed three times for 5 min with TBS-T before incubating with the respective secondary antibody coupled with horseradish peroxidase. The detection was carried out using the Western Lightning Plus-ECL reagent (Perkin Elmer, Waltham MA, USA) with the c300 chemiluminescence imager (Azure Biosystems, Dublin CA, USA). The used primary and secondary antibodies are detailed in supplementary Table S3.

Series [4] concerns HepG2-CYP1A2 cells. Particulars: ES 24 h + 72 h recovery; not statistically significant; concentration not given. How it is done:
Following the recovery time, the cells were detached, harvested by centrifugation (300 g, 5 min), and washed with PBS. […] The fluorescent dye was then activated by photolysis (60 W lightbulb, 30 cm spacing) for 20 min before addition of 9 mL PBS to remove unbound dye. […] 1.5 × 10^4 cells were analysed using the BD FACSDiva software (BD Biosciences, Heidelberg, Germany). A schematic overview of the gating strategy is provided in the supporting information, Fig. 3.

Series [5] relates to HepG2-CYP1A2 cells. The experiment in a line: Alkaline comet assay (DNA strand breaks) in HepG2-CYP1A2 cells. Particulars: 24 h. How it is done: As a positive control, tBuOOH (20 min, 200 µM) was used. Subsequently, the alkaline comet assay was performed to quantify DNA strand breaks as previously described (Haas et al. [2023b]). Per sample, at least 50 comets were counted with Comet IV software (Instem, Staffordshire, UK) using a Zeiss Axio Observer 7 microscope equipped with an Axiocam 305 mono and ZEN 3.2 software (Carl Zeiss, Jena, Germany).

The subject of series [6] is HepG2-CYP1A2 cells. As to the kind of experiment: Western blot of γH2AX and p53 in HepG2-CYP1A2 cells. Particulars: 24 h. How it is done: as §1
Another series has as its system parental HepG2 cells. Also on record: method as in Yang et al. 2020. The following applies: ref Yang et al. 2020; cited from earlier work.
Setting [7] is: endpoint E3′-N^2-dG, BMR 2.0-fold increase, 90% CI.

pEC50: −log10 of the molar value.

For `C=CC(O)c1ccc(OC)cc1` (stereo not drawn) [1′OH-ES, 1′-hydroxyestragole], the pEC50 with HepG2 cells [1] was 3.99. For the same compound, the “E3′-N^2-dG adducts” value in the series with HepG2 cells [2] (0.1 µM 1′OH-ES) is 24 adducts/10^8 ncs. Also, in the series with HepG2 cells [2] (25 µM 1′OH-ES), the “E3′-N^2-dG adducts” value was 2237 adducts/10^8 ncs and the “E3′-N^6-dA adducts” value is recorded as 64 adducts/10^8 ncs. Also, in the series with HepG2 cells [2] (35 µM 1′OH-ES), the “E3′-N^2-dG adducts” value was 6881 adducts/10^8 ncs and the “E3′-N^6-dA adducts” value turned out to be 139 adducts/10^8 ncs. Besides, the “E3′-N^2-dG levels vs equimolar ES concentrations” value with HepG2 cells [2] (1′OH-ES in HepG2 vs ES in HepG2-CYP1A2, 24 h) was 10–50 fold. Further, in the series with HepG2 cells [2] (endpoint E3′-N^2-dG, BMR 2.0-fold increase), the BMC100 amounted to 2.65 µM. Further, in the series with HepG2 cells [2] (setting [7]), the BMCL came to 0.75 µM and the BMCU turned out to be 5.65 µM. For the same compound, the “genotoxic and mutagenic potency compared to the parent compound ES” value in the series with HepG2 cells [2] (from BMC modelling) is 20–30 fold. In addition, in the series with HepG2 cells [2] (highest 1′OH-ES concentration), the “E3′-N^2-dG adduct level corresponding to significant cytotoxicity” value stood at 6881 adducts/10^8 ncs. Also, in the series on HepG2 cells [2] (molecular dosimetry, flow cytometry and CBMN), the “E3′-N^2-dG adduct level at which a twofold MN increase was observed” value is on record as 420–2237 adducts/10^8 ncs. For the same compound, the “concentrations reaching the adduct level required to impair viability” value with HepG2 cells [2] (more than 6000 E3′-N^2-dG adducts/10^8 ncs) is listed as no less than 35 µM. For the same compound, in the series with HepG2 cells [2] (not reached by ES), the “E3′-N^2-dG adducts required to impair viability and trigger cell death” value was “more than 6000 adducts/10^8 ncs”. Also, the γH2AX increase with HepG2 cells [3] (5 µM 1′OH-ES) is given as 2.2 fold. In the series on HepG2 cells [3] (50 µM 1′OH-ES), the p53 induction result is “sevenfold” and the γH2AX induction worked out at 4.8 fold.

Take `C=CCc1ccc(OC)cc1` [ES, estragole]: in the series on HepG2-CYP1A2 cells [4], the “MN formation, increase vs. solvent control (flow cytometry)” value stood at 1.6 fold. In addition, the “DNA strand breaks (alkaline comet assay)” value is on record as “small but not statistically significant increase” in the series with HepG2-CYP1A2 cells [5] (2 mM ES, vs solvent control) and “did not elicit an increase of DNA strand break levels” in the series with HepG2-CYP1A2 cells [5] (up to 2 mM ES). In addition, in the series on HepG2-CYP1A2 cells [6] (250 µM ES), the “γH2AX induction vs. control” value is listed as “threefold”. Moreover, the p53 accumulation result in the series with HepG2-CYP1A2 cells [6] is recorded as “No p53 accumulation”. Besides, the DNA adducts result in the series with parental HepG2 cells was “failed to cause DNA adducts”.
